21 molecules from PubChem BioAssay AID2286 (Southern Research Specialized Biocontainment Screening …, 2010) can be followed below.

Activity calls are given as the source filed them.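 Rule for the calls: active = minimum cell viability of 80% or lower across the dose range, counted as toxic; inactive = minimum cell viability above 80%.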 Bounds are passed on as bounds.

Test [1] in a line: MAGI-CCR5 and HeLa-R5-16 cytotoxicity, dose response, cytotoxicity control for HIV-1 fusion inhibitor project, cell-based, MAGI and MAGI-HeLa co-culture (AID 2286).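 For all read-outs here: cells exposed to compound for at least 64 h before ATP readout.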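 For minimum viability: 100% = median of DMSO vehicle wells with no ATP signal meaning 0%.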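 For viability: 100% = median of DMSO vehicle wells with no ATP signal meaning 0%.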 The settings on record: MAGI-CCR5 cells viability, CellTiter-Glo ATP luminescence; for minimum viability: measured here: MAGI minimum viability across doses.
Test [2] concerns MAGI-CCR5 cells viability, CellTiter-Glo ATP luminescence. Described as above.
Where [3] appears, read: MAGI-HeLa co-culture viability, at 50 µM, stronger effect = lower value.
[4] abbreviates: measured here: MAGI + HeLa-R5-16 co-culture viability.

For `CC1(c2ccccc2)CC(C)(C)N2C(=O)/C(=C3\SC(=S)NC3=O)c3cccc1c32` (stereo not drawn), the viability (usually a read-out of living cells in per cent, often relative to untreated cells) in test [1] (setting [3]) was found to be 40.9%. Moreover, the minimum viability in test [1] (at 50 µM, stronger effect = lower value) came to 22.5%. The results for the CC50 in test [2] and in test [2] (setting [4]) were 14.1 µM and 37 µM, respectively.

For the molecule `CCOc1ccc(CCNC(=O)c2ccc3c(=O)[nH]c4c(C(=O)NC(C)C)sc(=S)n4c3c2)cc1`, the viability in test [1] (setting [3]) is 93.9%. In test [1] (at 50 µM, stronger effect = lower value), this molecule showed a minimum viability of 45.6%. In addition, the CC50 – broadly, the concentration that lowers cell viability or growth by half – in test [2] is 37.2 µM.

Consider `O=C(O)c1cc(-c2ccc(-c3c(-c4ccc5c(c4)OCO5)noc3-c3ccsc3)cc2)nc2ccccc12`, for which, in test [1] (setting [3]), the viability is 64.8%. For the same molecule, the minimum viability in test [1] (at 50 µM, stronger effect = lower value) stood at 40.9%. The CC50 in test [2] is 32.5 µM; in test [2] (setting [4]), above 50 µM.

Turning to `O=C(O)C1Nc2ccc(Br)cc2C2C=CCC12` (stereo not drawn), the viability was 74.1% in test [1] (setting [3]) and 98% (inactive) in test [1] (at 50 µM (top of the series)). Moreover, the minimum viability in test [1] (at 0.2 µM, stronger effect = lower value) is 90.6%. For the same molecule, the CC50 in test [2] (setting [4]) is above 50 µM.

For the molecule `COc1ccc(C(=O)/C=C/c2cccc(OCc3ccccc3)c2)cc1CSCC(=O)O`, the viability in test [1] (setting [3]) turned out to be 13.8%. The minimum viability in test [1] (at 50 µM, stronger effect = lower value) amounted to 5.22%. The CC50 in test [2] is 28.5 µM; in test [2] (setting [4]), 46.4 µM.

For the molecule `C/C(=N\Nc1ccc(C(=O)O)cc1)c1ccc2c(c1)Nc1ccccc1S2`, the viability in test [1] (setting [3]) came out at 52.7%. For the same molecule, the minimum viability in test [1] (at 50 µM, stronger effect = lower value) came out at 47.2%. Besides, the figures for the CC50 in test [2] and in test [2] (setting [4]) were 46.2 µM and 26.2 µM, respectively.

In the case of `Cc1ccc(C)c(S(=O)(=O)/N=C2\C=C(NS(=O)(=O)c3ccccc3)C(=O)c3ccccc32)c1`, in test [1] (setting [3]), the viability is 52.8%. Besides, the minimum viability in test [1] (at 50 µM, stronger effect = lower value) was determined as 40.6%. In addition, the results for the CC50 in test [2] and in test [2] (setting [4]) were 43.1 µM and above 50 µM, respectively.

Consider `CC(C)(C)c1ccc(S(=O)(=O)/N=C2\C=C(NS(=O)(=O)c3ccccc3)C(=O)c3ccccc32)cc1`, for which the viability in test [1] (setting [3]) was determined as 51.2%. In test [1] (at 50 µM, stronger effect = lower value), this molecule showed a minimum viability of 51.5%. Besides, in test [2] (setting [4]), the CC50 was above 50 µM.

In the case of `O=C(Nc1ccccc1Cc1ccccc1)c1ccccc1NS(=O)(=O)c1ccc(Cl)s1`, the viability in test [1] (setting [3]) was 26.2%. For the same molecule, in test [1] (at 12.5 µM, stronger effect = lower value), the minimum viability came to 15.3%. Further, the values for the CC50 in test [2] and in test [2] (setting [4]) were 1.68 µM and 5.85 µM, respectively.

As to `O=[N+]([O-])c1cccc(S(=O)(=O)Nc2nc3ccccc3nc2Nc2cccc(S(=O)(=O)N3CCCCC3)c2)c1`, the viability in test [1] (setting [3]) turned out to be 20.4%. Moreover, in test [1] (at 50 µM, stronger effect = lower value), the minimum viability was 19.9%. For the same molecule, the values for the CC50 in test [2] and in test [2] (setting [4]) were 7.22 µM and 14.1 µM, respectively.

Consider `COCCN1C(=O)/C(=C/c2ccc(OCc3ccc(C(=O)O)cc3)c(OC)c2)SC1=Nc1ccccc1`, for which the viability in test [1] (setting [3]) worked out at 44.3%. The minimum viability in test [1] (at 50 µM, stronger effect = lower value) was 41.3%. Further, the CC50 was 33.8 µM in test [2] and 35.4 µM in test [2] (setting [4]).

In the case of `CCn1nc([N+](=O)[O-])c(C(C#N)c2nc3cc(C(F)(F)F)ccc3s2)c(Cl)c1=O` (stereo not drawn), in test [1] (at 50 µM, stronger effect = lower value), the minimum viability stood at 22.2%. For the same molecule, the CC50 in test [2] was 27.8 µM.

Turning to `O=C(O)c1ccc(N/N=C/c2ccc(-c3cccc(Cl)c3)o2)cc1`, the viability in test [1] (setting [3]) was 10.1%. In addition, the minimum viability in test [1] (at 50 µM, stronger effect = lower value) was 21.6%. Moreover, the CC50 in test [2] is 10.3 µM; in test [2] (setting [4]), 2.83 µM.

For the molecule `CCOc1cc(/C=C2/C(=N)N3C(=NC2=O)SN=C3S(C)(=O)=O)ccc1OS(=O)(=O)c1ccccc1`, the viability is 68.9% in test [1] (setting [3]) and 81.5% (inactive) in test [1] (at 50 µM (top of the series)). Moreover, the minimum viability in test [1] (at 50 µM, stronger effect = lower value) worked out at 81.5%. The CC50 in test [2] (setting [4]) was above 50 µM.

Turning to `COc1ccc(/C=C2/SC(=S)N(CC(=O)O)C2=O)cc1OCc1ccc(Cl)cc1`, the viability in test [1] (setting [3]) is 67%; in test [1] (at 50 µM (top of the series)), 104% (inactive). In addition, the minimum viability in test [1] (at 3.13 µM, stronger effect = lower value) was 85.8%. Further, the CC50 in test [2] (setting [4]) was above 50 µM.

As for `O=C(O)c1[nH]c2ccccc2c1C(c1cc(Br)ccc1O)c1c(C(=O)O)[nH]c2ccccc12`, the viability in test [1] (setting [3]) is 82%; in test [1] (at 50 µM (top of the series)) it was 85.4% (inactive). In test [1] (at 50 µM, stronger effect = lower value), this molecule displayed a minimum viability of 85.4%.

On to `O=C(O)c1ccc(/C=N/NC(=O)c2ccc(CN3c4cccc5cccc(c45)S3(=O)=O)cc2)cc1`, for which the viability in test [1] (setting [3]) is 93.3%; in test [1] (at 50 µM (top of the series)) it was 85% (inactive). The same molecule had a minimum viability in test [1] (at 6.25 µM, stronger effect = lower value) of 83.3%.

As for `N#Cc1c(-c2ccccc2)nc(SCc2cccc(Cl)c2)[nH]c1=O`, the viability was 101% in test [1] (setting [3]) and 95.8% (inactive) in test [1] (at 50 µM (top of the series)). Besides, the minimum viability in test [1] (at 25 µM, stronger effect = lower value) was found to be 88%.

As to `COc1cc(/C=C2\S/C(=N/S(=O)(=O)c3ccc(C)cc3)NC2=O)c([N+](=O)[O-])cc1OC`, the viability in test [1] (setting [3]) was 98.5%; in test [1] (at 50 µM (top of the series)), 98.6% (inactive). The minimum viability in test [1] (at 50 µM, stronger effect = lower value) turned out to be 98.6%.

Take `Cc1ccccc1N/N=C/c1sc(=O)n(Cc2cccc(C(=O)O)c2)c1Cl`: in test [1] (setting [3]), the viability amounted to 109%. The molecule also had a minimum viability in test [1] (at 50 µM, stronger effect = lower value) of 72.9%.

On to `O=C(NCc1ccccc1)c1ccc2c(=O)[nH]c3c(C(=O)NCC4CCCO4)sc(=S)n3c2c1` (stereo not drawn), for which the viability is 106% in test [1] (setting [3]) and 86.3% (inactive) in test [1] (at 50 µM (top of the series)). In addition, the minimum viability in test [1] (at 50 µM, stronger effect = lower value) amounted to 86.3%.
